Experimental data reported in patent US10195196B2, “1,4-disubstituted pyridazine analogs there of and methods for treating SMN-deficiency-related conditions” (NOVARTIS AG, priority 2012, dated 2019).

Test system: SMN protein
Test: cellular SMN ELISA (SMN protein elevation)
Assay type: cell-based
Conditions: myoblast cell line from SMNdelta7 mouse model, 24 hours treatment; for SMN activity Fold: fold activation over DMSO control
Description: A cellular SMN ELISA was used to measure the effects of low molecular weight compounds on SMN protein elevation. Cells from a myoblast cell line derived from the SMNdelta7 mouse model (kind gift from Steve Burden, NYU) were seeded into a 384-well plate at a density of 3000 cells/well and treated with compounds for 24 hours. ELISA capture plates were prepared by coating 384-well plates (Immulon 4HBX) with 0.5 ug/mL of anti-SMN mAb (BD Science, Catalog number 610647) at 4° C. overnight. The plates were washed 5 times with 110 uL of PBS-Tween (0.05% Tween-20, PBST), blocked with 100 uL of 1% BSA in PBST for 2 hours and washed (5 times) with 100 uL of PBST. After 24 hours of compound treatment cells were lysed in a modified RIPA-buffer, on ice for 1 hour. 20 uL of lysate and 20 uL of 1% BSA were then added to the ELISA capture plates and incubated at 4° C. overnight. Plates were washed (5 times) with PBST and then incubated with 1:100 dilution of primary rabbit anti-SMN polyclonal antibody (Santa cruz, Catalog number SC-15320) at room temperature for 1 hour and subsequently washed (5 times) with 110 uL of PBST. This was followed by addition of 1:100 Goat anti-Rabbit IgG-HRP linked (Cell Signaling, Catalog number 7074) secondary antibody for 1 hour. Plates were then washed with PBST and incubated with 40 uL TMB substrate (Cell Signaling, Catalog number 7004L) at room temperature for 1-10 minutes with shaking. The reaction was stopped by addition of 40 uL of stop solution (Cell signaling, Catalog number 7002L) and absorption was measured at 450 nm. Data was reported as fold activation over DMSO control, and EC50.
ELISA assay condition 1: compound concentration range 20 nM-10 uM; ELISA assay condition 2: compound concentration 100 pM-10 uM.

[1] = ELISA condition 2: compound concentration 100 pM-10 uM
[2] = ELISA condition 1: compound concentration range 20 nM-10 uM

SMILES	EC50 [1] [nM]	SMN activity Fold [1] [Fold]	EC50 [2] [nM]	SMN activity Fold [2] [Fold]
CC(=O)NCCCOc1ccc2cc(-c3ccc(N(C)C4CC(C)(C)NC(C)(C)C4)nn3)c(O)cc2c1 [Example 20-6, N-[3-(7-hydroxy-6-{6-[methyl-(2,2,6,6-tetramethyl-piperidin-4-yl)-amino]-pyridazin-3-yl}-naphthalen-2-yloxy)-propyl]-acetamide]	50	2.18		
CC1CC(Oc2ccc(-c3ccc(-n4cccn4)cc3O)nn2)CC(C)N1 (single isomer, unassigned) [Example 17-4, 2-(6-((2,6-Dimethylpiperidin-4-yl)oxy)pyridazin-3-yl)-5-(1H-pyrazol-1-yl)phenol]	92	3.25		
OCCN1C[C@@H]2CN(c3ccc(-c4ccc(-c5cn[nH]c5)cc4O)nn3)C[C@@H]2C1 [Example 43-1, 2-(6-((3aR,6aS)-5-(2-hydroxyethyl)hexahydropyrrolo[3,4-c]pyrrol-2(1H)-yl)pyridazin-3-yl)-5-(1H-pyrazol-4-yl)phenol]	40	3.04		
CN(c1ccc(-c2ccc(C3=CCOCC3)cc2O)nn1)C1CC(C)(C)NC(C)(C)C1 [Example 41-17, 5-(3,6-dihydro-2H-pyran-4-yl)-2-(6-(methyl(2,2,6,6-tetramethylpiperidin-4-yl)amino)pyridazin-3-yl)phenol]	170	2.88		
CC1(C)CC(Nc2ccc(-c3ccc4scnc4c3)nn2)CC(C)(C)N1 [Example 2-2, 6-(benzo[d]thiazol-5-yl)-N-(2,2,6,6-tetramethyl-piperidin-4-yl)pyridazin-3-amine]			1030	2.37
Oc1cc(-n2cccn2)ccc1-c1ccc(N2CCNCC2)nn1 [Example 18-1, 2-(6-piperazin-1-yl-pyridazin-3-yl)-5-pyrazol-1-yl-phenol]	296	3.07		
Oc1ccc2cc(-c3ccc(N4CCNCC4)nn3)c(O)cc2c1 [Example 18-18, 3-(6-(piperazin-1-yl)pyridazin-3-yl)naphthalene-2,7-diol]	56	2.57		
CN(c1ccc(-c2ccc(-n3cccn3)nc2)nn1)C1CC(C)(C)NC(C)(C)C1 [Example 1-19, methyl-[6-(6-pyrazol-1-yl-pyridin-3-yl)-pyridazin-3-yl]-(2,2,6,6-tetramethyl-piperidin-4-yl)-amine]			740	3.10
Cc1cnc(-c2ccc(-c3ccc(N(C)C4CC(C)(C)NC(C)(C)C4)nn3)c(O)c2)o1 [Example 10-1, 5-(5-methyl-oxazol-2-yl)-2-{6-[methyl-(2,2,6,6-tetramethyl-piperidin-4-yl)-amino]-pyridazin-3-yl}-phenol]	31	2.99		
COc1cc(-c2cc(O)c(-c3ccc(N(C)C4CC(C)(C)NC(C)(C)C4)nn3)c(F)c2)ccn1 [Example 40-1, 3-fluoro-5-(2-methoxypyridin-4-yl)-2-(6-(methyl(2,2,6,6-tetramethylpiperidin-4-yl)amino)pyridazin-3-yl)phenol]	79	2.58		
CN(c1ccc(-c2ccc(-c3ccnc(O)c3)cc2O)nn1)C1CC(C)(C)NC(C)(C)C1 [Example 41-3]	66	3.10		
CC1(C)CC(Nc2ccc(-c3ccc(-n4cccn4)cc3O)nn2)CC(C)(C)N1 [Example 30-1, 5-(1H-pyrazol-1-yl)-2-(6-((2,2,6,6-tetramethylpiperidin-4-yl)amino)pyridazin-3-yl)phenol]	8	2.99		
CN(c1ccc(-c2ccc(-c3c[nH]cn3)cc2O)nn1)C1CC(C)(C)NC(C)(C)C1 [Example 42-2, 5-(1H-imidazol-4-yl)-2-(6-(methyl(2,2,6,6-tetramethylpiperidin-4-yl)amino)pyridazin-3-yl)phenol]	26	2.06		
CN(c1ccc(-c2c(O)cc(-c3cn[nH]c3)cc2F)nn1)C1CC(C)(C)NC(C)(C)C1 [Example 40-7, 3-fluoro-2-(6-(methyl(2,2,6,6-tetramethylpiperidin-4-yl)amino)pyridazin-3-yl)-5-(1H-pyrazol-4-yl)phenol]	4	2.80		
CC1(C)CC(Nc2ccc(-c3ccccc3O)nn2)CC(C)(C)N1 [Example 1-3, 2-(6-(2,2,6,6-tetramethylpiperidin-4-ylamino)-pyridazin-3-yl)phenol]	726	2.45		
CN(c1ccc(-c2cc(-c3ccnc(O)c3)ccc2O)nn1)C1CC(C)(C)NC(C)(C)C1 [Example 32-7, 4-(4-hydroxy-3-(6-(methyl(2,2,6,6-tetramethylpiperidin-4-yl)amino)pyridazin-3-yl)phenyl)pyridin-2-ol]	551	3.27		
CN1C(C)(C)CC(Nc2ccc(-c3cc4ccccc4s3)nn2)CC1(C)C [Example 7-1, 6-(benzo[b]thiophen-2-yl)-N-(1,2,2,6,6-pentamethylpiperidin-4-yl)pyridazin-3-amine]			2730	2.54
CN(c1ccc(-c2cc(-c3ccn[nH]3)c(F)cc2O)nn1)C1CC(C)(C)NC(C)(C)C1 [Example 34-5, 5-fluoro-2-(6-(methyl(2,2,6,6-tetramethylpiperidin-4-yl)amino)pyridazin-3-yl)-4-(1H-pyrazol-5-yl)phenol]	56	2.75		
CN(c1ccc(-c2cc3ccc(C4=CCOCC4)cc3cc2O)nn1)C1CC(C)(C)NC(C)(C)C1 [Example 24-8, 7-(3,6-dihydro-2H-pyran-4-yl)-3-(6-(methyl(2,2,6,6-tetramethylpiperidin-4-yl)amino)pyridazin-3-yl)naphthalen-2-ol]	7	2.39		
CN(c1ccc(-c2ccc(-c3ccn(C)c(=O)c3)cc2O)nn1)C1CC(C)(C)NC(C)(C)C1 [Example 41-7, 4-(3-hydroxy-4-(6-(methyl(2,2,6,6-tetramethylpiperidin-4-yl)amino)pyridazin-3-yl)phenyl)-1-methylpyridin-2(1H)-one]	7	2.87		
COc1ccc(-c2ccc(N(C)C3CC(C)(C)NC(C)(C)C3)nn2)c(O)c1 [Example 3-11, 5-methoxy-2-{6-[methyl-(2,2,6,6-tetramethyl-piperidin-4-yl)-amino]-pyridazin-3-yl}-phenol]	220	2.47		
CN(c1ccc(-c2ccc(C3=CCNCC3)cc2O)nn1)C1CC(C)(C)NC(C)(C)C1 [Example 41-15, 2-(6-(methyl(2,2,6,6-tetramethylpiperidin-4-yl)amino)pyridazin-3-yl)-5-(1,2,3,6-tetrahydropyridin-4-yl)phenol]	145	2.56		
CN(c1ccc(-c2ccc3ccnc(OCc4ccccc4)c3c2)nn1)C1CC(C)(C)NC(C)(C)C1 [Example 39-2, 6-(1-(benzyloxy)isoquinolin-7-yl)-N-methyl-N-(2,2,6,6-tetramethylpiperidin-4-yl)pyridazin-3-amine]	408	3.04		
CN(c1ccc(-c2cc3ccc(OCCCN)cc3cc2O)nn1)C1CC(C)(C)NC(C)(C)C1 [Example 20-5, 7-(3-amino-propoxy)-3-{6-[methyl-(2,2,6,6-tetramethyl-piperidin-4-yl)-amino]-pyridazin-3-yl}-naphthalen-2-ol]	6	2.66		
CN(c1ccc(-c2cc3ccc(OC(C)(C)CCO)cc3cc2O)nn1)C1CC(C)(C)NC(C)(C)C1 [Example 24-11, 7-((4-hydroxy-2-methylbutan-2-yl)oxy)-3-(6-(methyl(2,2,6,6-tetramethylpiperidin-4-yl)amino)pyridazin-3-yl)naphthalen-2-ol]	133	2.54		
CCOc1cc(-c2ncc(C)o2)cc(O)c1-c1ccc(N(C)C2CC(C)(C)NC(C)(C)C2)nn1 [Example 27-2, 3-ethoxy-2-(6-(methyl(2,2,6,6-tetramethylpiperidin-4-yl)amino)pyridazin-3-yl)-5-(5-methyloxazol-2-yl)phenol]	165	2.83		
CN(c1ccc(-c2cc3ccc(OCCCNC(=O)OC(C)(C)C)cc3cc2O)nn1)C1CC(C)(C)NC(C)(C)C1 [Example 20-4, [3-(7-hydroxy-6-{6-[methyl-(2,2,6,6-tetramethyl-piperidin-4-yl)-amino]-pyridazin-3-yl}-naphthalen-2-yloxy)-propyl]-carbamic acid tert-butyl ester]			310	2.32
